pIC50: −log10 of the molar value. Values after ≈ are worked out from the molar mass of the structure shown.
What was measured:
[1] = system: Staphylococcus aureus; experiment: Antimicrobial activity against Staphylococcus aureus USA300 deficient in ClpP incubated overnight under aerobic condition by microbroth dilution method; format: functional
[2] = system: Bacillus subtilis; experiment: Antimicrobial activity against Bacillus subtilis ATCC 23857 incubated overnight under aerobic condition by microbroth dilution method; format: functional
[3] = system: Streptococcus pneumoniae; experiment: Antimicrobial activity against Streptococcus pneumoniae R6 incubated overnight under aerobic condition by microbroth dilution method; format: functional
[4] = system: Streptococcus pyogenes; experiment: Antimicrobial activity against Streptococcus pyogenes ATCC 700294 incubated overnight under aerobic condition by microbroth dilution method; format: functional
[5] = system: Staphylococcus aureus; experiment: Antimicrobial activity against Staphylococcus aureus USA300 incubated overnight under aerobic condition by microbroth dilution method; format: functional
[6] = system: Staphylococcus aureus; experiment: Antimicrobial activity against Staphylococcus aureus ATCC 29213 incubated overnight under aerobic condition by microbroth dilution method; format: functional
[7] = system: Staphylococcus aureus; experiment: Antimicrobial activity against Staphylococcus aureus NRS70 incubated overnight under aerobic condition by microbroth dilution method; format: functional
[8] = system: Vero; experiment: Cytotoxicity in African green monkey Vero cells assessed as reduction in cell viability incubated for 72 hrs by cell-titer-Glo luminescent cell viability assay; format: cell-based; conditions: Chlorocebus sabaeus
[9] = system: Enterococcus faecalis; experiment: Antimicrobial activity against Enterococcus faecalis ATCC 33186 incubated overnight under aerobic condition by microbroth dilution method; format: functional

| Compound | MIC [1] [µM] | MIC [4] [µM] | MIC [5] [µM] | MIC [6] [µM] | MIC [7] [µM] | other results |
| --- | --- | --- | --- | --- | --- | --- |
| Cc1ccc(NC(=O)N[C@@H](Cc2cc(F)cc(F)c2)C(=O)N[C@H]2COC(=O)[C@@H]3C[C@@H](F)CN3C(=O)[C@H](C)NC(=O)[C@@H]3CCCCN3C(=O)[C@@H]3CCCN3C2=O)cc1 | > 200 |  |  |  |  |  |
| Cc1ccc(NC(=O)N[C@@H](Cc2cc(F)cc(F)c2)C(=O)N[C@@H]2C(=O)N3CCC[C@H]3C(=O)N(C)[C@@H]([C@H](C)O)C(=O)N[C@@H](C)C(=O)N3C[C@H](C)C[C@H]3C(=O)O[C@H]2C)cc1 |  | 0.1 (≈ 0.0812 µg/mL) | 0.1 (≈ 0.0812 µg/mL) | 0.05 (≈ 0.0406 µg/mL) |  | MIC [2]: 0.05 µM (≈ 0.0406 µg/mL); MIC [3]: 0.02 µM (≈ 0.0162 µg/mL) |
| C[C@H]1C[C@H]2C(=O)O[C@@H](C)[C@H](NC(=O)[C@H](Cc3cc(F)cc(F)c3)NC(=O)Nc3ccc(C(F)(F)F)cc3)C(=O)N3CCC[C@H]3C(=O)N3CCCC[C@H]3C(=O)N[C@@H](C)C(=O)N2C1 |  | 1.5 (≈ 1.29 µg/mL) |  |  |  |  |
| Cc1ccc(NC(=O)N[C@@H](Cc2cc(F)cc(F)c2)C(=O)N[C@@H]2C(=O)N3CCC[C@H]3C(=O)N3CCOC[C@H]3C(=O)N[C@@H](C)C(=O)N3C[C@H](C)C[C@H]3C(=O)O[C@H]2C)cc1 | > 200 | 0.02 (≈ 0.0162 µg/mL) |  | 0.003 (≈ 0.00243 µg/mL) |  | MIC [3]: 0.002 µM (≈ 0.00162 µg/mL) |
| C[C@H]1C[C@H]2C(=O)O[C@@H](C)[C@H](NC(=O)[C@H](Cc3cc(F)cc(F)c3)NC(=O)Nc3ccc(OC(F)(F)F)cc3)C(=O)N3C[C@H](O)C[C@H]3C(=O)N(C)[C@@H](C)C(=O)N[C@@H](C)C(=O)N2C1 | 100 (≈ 86.8 µg/mL) |  |  | 0.1 (≈ 0.0868 µg/mL) | 0.1 (≈ 0.0868 µg/mL) |  |
| COc1cccc(NC(=O)N[C@@H](Cc2ccccc2)C(=O)N[C@H]2COC(=O)[C@@H]3C[C@@H](C)CN3C(=O)[C@H](C)NC(=O)[C@@H]3CCCCN3C(=O)[C@@H]3CCCN3C2=O)c1 |  |  |  | 3.13 (≈ 2.42 µg/mL) | 3.13 (≈ 2.42 µg/mL) |  |
| Cc1ccc(NC(=O)N[C@@H](Cc2cc(F)cc(F)c2)C(=O)N[C@H]2COC(=O)[C@@H]3C[C@H](C)CN3C(=O)[C@H](C)NC(=O)[C@@H]3CCCCN3C(=O)[C@@H]3CCCN3C2=O)cc1 | 100 (≈ 79.4 µg/mL) |  |  |  |  |  |
| C[C@H]1C[C@H]2C(=O)O[C@@H](C)[C@H](NC(=O)[C@H](Cc3cc(F)cc(F)c3)NC(=O)Nc3ccc(OC(F)(F)F)cc3)C(=O)N3CCC[C@H]3C(=O)N(C)[C@@H](C)C(=O)N[C@@H](C)C(=O)N2C1 | 25 (≈ 21.3 µg/mL) | 0.23 (≈ 0.196 µg/mL) | 0.1 (≈ 0.0852 µg/mL) | 0.05 (≈ 0.0426 µg/mL) | 0.05 (≈ 0.0426 µg/mL) | MIC [2]: 0.01 µM (≈ 0.00852 µg/mL) |
| CCc1ccc(NC(=O)N[C@@H](Cc2cc(F)cc(F)c2)C(=O)N[C@@H]2C(=O)N3CCC[C@H]3C(=O)N(C)[C@@H]([C@H](C)O)C(=O)N[C@@H](C)C(=O)N3C[C@H](C)C[C@H]3C(=O)O[C@H]2C)cc1 | 100 (≈ 82.6 µg/mL) |  |  |  |  | pIC50 [8]: 4.60 |
| CCc1ccc(NC(=O)N[C@@H](Cc2cc(F)cc(F)c2)C(=O)N[C@@H]2C(=O)N3CCC[C@H]3C(=O)N(C)[C@@H]([C@H](C)O)C(=O)N[C@@H](C)C(=O)N3C[C@@H](C)C[C@H]3C(=O)O[C@H]2C)cc1 | 100 (≈ 82.6 µg/mL) |  |  |  |  | pIC50 [8]: 4.47 |
| CCc1ccc(NC(=O)N[C@@H](Cc2cc(F)cc(F)c2)C(=O)N[C@@H]2C(=O)N3CCC[C@H]3C(=O)N(C)[C@@H](C)C(=O)N[C@@H](C)C(=O)N3C[C@@H](C)C[C@H]3C(=O)O[C@H]2C)cc1 |  |  | 0.1 (≈ 0.0796 µg/mL) | 0.1 (≈ 0.0796 µg/mL) |  |  |
| C[C@H]1C[C@H]2C(=O)OC[C@H](NC(=O)[C@H](Cc3ccccc3)NC(=O)Nc3ccc(OC(F)(F)F)cc3)C(=O)N3CCC[C@H]3C(=O)N3CCCC[C@H]3C(=O)N[C@@H](C)C(=O)N2C1 |  |  |  | 0.4 (≈ 0.331 µg/mL) | 0.4 (≈ 0.331 µg/mL) |  |
| O=C(N[C@H](CO)[C@H](O)c1ccc([N+](=O)[O-])cc1)C(Cl)Cl [CHLORAMPHENICOL] |  |  | 3.1 (≈ 1 µg/mL) |  | 3.1 (≈ 1 µg/mL) |  |
| NC[C@H]1O[C@H](O[C@H]2[C@H](O)[C@@H](O[C@H]3O[C@H](CO)[C@@H](O)[C@H](N)[C@H]3O)[C@H](N)C[C@@H]2N)[C@H](O)[C@@H](O)[C@@H]1O [KANAMYCIN] |  | 12.5 (≈ 6.06 µg/mL) |  | 1.56 (≈ 0.756 µg/mL) |  | MIC [2]: 0.1 µM (≈ 0.0485 µg/mL) |
| CN[C@@H]1[C@H](O)[C@H](NC)[C@H]2O[C@@]3(O)C(=O)C[C@@H](C)O[C@H]3O[C@@H]2[C@H]1O [SPECTINOMYCIN] |  |  | 50 (≈ 16.6 µg/mL) | 50 (≈ 16.6 µg/mL) |  |  |
| CN(C)[C@@H]1C(O)=C(C(N)=O)C(=O)[C@@]2(O)C(O)=C3C(=O)c4c(O)cccc4[C@@](C)(O)[C@H]3C[C@@H]12 [TETRACYCLINE] |  |  |  |  |  | MIC [2]: 1.6 µM (≈ 0.711 µg/mL); MIC [9]: 0.05 µM (≈ 0.0222 µg/mL) |

— ChEMBL document CHEMBL4476873, “Substituted urea depsipeptide analogs as activators of the clpp endopeptidase” (2018)
